Measurements reported in patent publication US12108762B2, “Methods of controlling crop pests using aromatic amide insect repellents, methods of making aromatic amide insect repellents, and novel aromatic amide insect repellents” (priority 2020, dated 2024).

Columns and labels:
[1] = test system: odorant receptor CquiOR136; details: southern house mosquito; cited from earlier work
Drosophila melanogaster = experiment: Habituation assay (prior exposure, then olfactory and gustatory screens); assay type: in vivo
Experimental: In the gustatory assay, the consumption of sugar (from a solution in a gel) treated at varying concentrations of the present repellent compounds was compared to the consumption of control-treated sugar. For the habituation assay, flies were tested over repeated exposures to the present repellent compounds to measure changes in behavioral preference for the compounds.
Flies were continuously monitored throughout their lifetime. In this assay, 3- to 5-day-old flies (70 male and 70 female) were selected and transferred to an empty fly food container 320 (FIG. 9). The polystyrene foam cap 310 was treated with 50 μL of 25% by weight of the present aromatic amide repellent in DMSO. A thin porous material 330 was placed around the treated cap 310, with a gap between the cap 310 and the material 330 so that the flies cannot touch the treated cap 310, but can only smell it. […] After the 20-hour period, the flies were screened in the olfactory assay and gustatory assays above. In the olfactory assay, the number of flies in the trap, the number of flies outside the trap, and the number of flies that died outside the trap were counted as described herein, and in the gustatory assay, the color of the flies' abdomens were determined and counted, as described herein.
The different assays assigned results as follows. For the single-choice olfactory assay, the numbers of flies were counted according to (1) those that entered the trap, (2) those that stayed outside the trap and lived, and (3) those that died outside the trap. For the two-choice olfactory assay, the numbers of flies were counted according to (1) those that entered the control trap, (2) those that entered the trap containing the repellent, (3) those that stayed outside of both traps and lived, and (4) those that died outside the traps. For the gustatory assay, the numbers of flies were counted according to those that had (1) a red-colored abdomen, (2) a blue-colored abdomen, (3) a purple abdomen, and (4) no added color to their abdomen. A nonparametric Mann-Whitney U test was used to compare the statistical differences between assays using DEET and the same assays using one of the present repellents for all trials.

mosquito = mosquito repellent; cited from earlier work

## CCN(CC)C(=O)c1cccc(C)c1 [DEET, N,N-diethyl-m-toluamide, reference compound]
[1]
  affinity for odorant receptor: showing an affinity
Drosophila melanogaster; post-exposure
  habituation of fruit flies, overall (olfactory and gustatory assays): demonstrated habituation in at least one assay
Drosophila melanogaster; prior exposure 25% by weight, gustatory screen at 5 mM
  repellency after prior exposure, gustatory assay: significantly less repellency
Drosophila melanogaster; prior exposure to 25% by weight repellent (18-hour period as printed elsewhere in the source)
  repellency after prior exposure, 2-choice olfactory assay: statistically similar
mosquito
  duration of efficacy: five
